Results: patent publication US20060287251A1, “Combination therapy for glycaemic control” (priority 2003, published 2006)

Assays:
[1] = target: T1, Prolidase from porcine kidney (Sus scrofa, UniProt A0A5G2QQV1); assay: Cross reacting enzymes: prolidase; type: biochemical; conditions: substrate Ile-Pro-OH
T1 construct: Prolidase from porcine kidney (ICN Biomedicals, Eschwege, Germany); purchased ICN Biomedicals, Eschwege, Germany; host or cells: porcine kidney
T1 sequence (A0A5G2QQV1 1-463): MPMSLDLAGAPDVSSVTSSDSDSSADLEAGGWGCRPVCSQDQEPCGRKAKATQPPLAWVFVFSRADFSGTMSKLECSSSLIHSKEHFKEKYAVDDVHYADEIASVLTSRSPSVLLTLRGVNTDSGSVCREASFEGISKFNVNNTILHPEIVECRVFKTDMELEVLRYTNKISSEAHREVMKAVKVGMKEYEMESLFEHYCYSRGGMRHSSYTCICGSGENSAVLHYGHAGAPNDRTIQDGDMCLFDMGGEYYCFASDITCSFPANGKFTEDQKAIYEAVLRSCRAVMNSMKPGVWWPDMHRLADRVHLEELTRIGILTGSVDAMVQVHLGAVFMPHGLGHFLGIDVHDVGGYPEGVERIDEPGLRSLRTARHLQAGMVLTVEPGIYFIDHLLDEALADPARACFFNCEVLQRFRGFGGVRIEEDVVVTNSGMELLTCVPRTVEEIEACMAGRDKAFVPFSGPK
Description: Glutaminyl pyrrolidine or glutaminyl thiazolidine were tested for their cross reacting potency against dipeptidyl peptidase I, prolyl oligopeptidase and prolidase.
Prolidase (EC 3.4.13.9) was first described by Bergmann & Fruton (Bergmann, M. & Fruton, J. S., 1937, J Biol. Chem. 189-202). Prolidase releases the N-terminal amino acid from Xaa-Pro dipeptides and has a pH optimum between 6 and 9. Prolidase from porcine kidney (ICN Biomedicals, Eschwege, Germany). was solved (1 mg/mL) in assay buffer (20 mM NH4(CH3COO)2, 3 mM MnCl2, pH 7.6). In order to get a fully active enzyme the solution was incubated for 60 min at room temperature. 450 μL glutaminyl pyrrolidine or glutaminyl thiazolidine in an concentration range of 5*10^−3 M-5*10^−7 M were admixed with 500 μL buffer solution (20 mM NH4(CH3COO)2, pH 7.6) and 250 μL Ile-Pro-OH (0.5 mM in the assay mixture). The assay mixture was pre-incubated at 30° C. for 5 min After pre-incubation, 75 μL Prolidase (1:10 diluted in assay buffer) were added and measurement was performed at 30° C. and λ=220 nm for 20 min using a UV/Vis photometer, UVW (Thermo Spectronic, Cambridge, UK). The IC50-values were calculated using Graphit 4.0.15 (Erithacus Software, Ltd., UK).

[2] = tested on: diet-induced obese (DIO) rats; assay: Glycaemic control (OGTT) in diet-induced obese rats with impaired glucose tolerance; type: in vivo, rat; conditions: glutaminyl thiazolidine hydrochloride 60 mg/kg BID, Metformin 125 mg/kg BID
Description: Selectively bred male rats, 5-6 weeks of age, displaying enhanced likelihood of developing diet-induced obesity (DIO) are selected from the breeding colony. A total of 40 DIO animals are included in the study.
Upon entry to the experiment, rats are housed individually (1 rat/cage) in a 12/12 light-dark cyldle (light from 0600-1800 h) with controlled temperature conditions (22-24° C.). […] After one week of acclimatisation, 24 h food and water intake and body-weight is measured gravimetrically twice weekly (in the morning between 8-10 am). After 3 weeks of HF feeding, average daily food consumption is calculated for all rats. The average food intake comprises a platform from which a scheduled feeding regime is implemented. […]
This test is carried out at 8:00 AM on days 6 and 42. […] Blood samples are taken from an indwelling arterial catheter and P-glucose is measured on automated analyser (Roche Diagnostics) at time points −60, −30, 0, 15, 30, 60, 120, and 180 min after oral administration of 1 g/kg glucose (using 1 g/ml dH2O). […] P-insulin is measured at time points: 0, 15, 30, 60, 120 using an ultra-sensitive ELISA (Shibayagi,Japan).
All rats are equipped with intra-arterial catheters at day −7. […] All blood samples are taken in EDTA Vacutainer tubes and plasma glucose is measured together with total Cholesterol and triacylglycerol. […]

[3] = tested on: diabetic Zucker (fa/fa) rats; assay: Glutaminyl thiazolidine and Metformin alone or in combination, glycemic control in diabetic Zucker (fa/fa) rats; type: in vivo, rat
Description: Ten or eleven weeks old male Zucker (fa/fa) rats were purchased from Charles River (Sulzfeld, Germany). Animals were kept under standardized semi-barrier conditions with controlled temperature (22±2° C.) on a 12/12 hours light/dark cycle (light on at 06:00 a.m.). Standard pelleted chow (ssniff®, Soest, Germany) and tap water acidified with HCl were allowed ad libitum. At the age of 12 weeks the animals (N=42) were divided in random order into six experimental groups to be medicated. Definition of the Experimental Groups for the Medications (GT=glutaminyl thiazolidine):
The single or combined doses per kg b.w. were solved in 5 mL dist. water for oral administration.
The study was started with the 12 to 13 weeks old Zucker (fa/fa) rats. At the beginning of the study an OGTT was performed (2 g glucose/kg body weight (b.w.); administration volume: 5 mL/kg of a 40% solution; B. Braun Melsungen, Melsungen, Germany) after a 16 h fast. […] Dosing was performed at t=5 min before OGTT by gavage.
Blood samples were taken from tail veins to measure blood glucose and serum insulin at −15, ±0 min, 15, 30, 60, 90, 120 and 180 min (the latter time without insulin samples) with respect to time of glucose administration.
After the first OGTT the animals in the groups were dosed twice daily with the respective drugs at 08:00 AM and at 04:00 PM, respectively:
(§1) During the two weeks of medication morning blood glucose was measured before the 08:00 AM medication at Monday, Wednesday and Friday.
Food intake was determined every day during the time of medication.
All the animals were weighted three times per week at 7:30 AM.
A second OGTT was performed after two weeks of medication (Day 15). The food was withdrawn at 04:00 PM the day before (16 h fast). The OGTT was performed with pre-medication at −5 min and oral glucose loading at ±0 min. Blood samples were taken from tail veins to measure blood glucose, and serum insuline at −15, ±0 min, 15, 30, 60, 90, 120 and 180 min (the latter time without insulin samples).
Glycated hemoglobin was measured before (Day −7) and on Day 18.
Glucose-For determination of glucose 20 μL blood were collected at −15, ±0 min (before OGTT) and 15, 30, 60, 90, 120 and 180 min post OGTT.
Insulin-Insulin concentrations were assayed by the antibody RIA method (Linco Research, Inc. St. Charles, Mo., USA).
Glycated haemoglobin-Percentage of glycated hemoglobin A (HbA1c) was estimated with the “DCA 2000R Hämoglobin A1c-Reagenz kit”(Bayer Vital GmbH, Fernwald, Germany).
The body weight was measured using a platform balance (Scaltec, Heiligenstadt, Germany).
Mixed venous blood samples from the tails were collected into 20 μL glass capillaries, which were placed in standard tubes filled with 1 ml solution for hemolysis (blood glucose measurement) and in sample tubes for serum insulin (50 μL blood).
Raw data of glucose analysis were provided by IDK to probiodrug in Excel format as soon as possible. Data for each drug and each parameter (glucose, insulin) were summarized by descriptive statistics (mean, SEM). […] Changes from baseline were calculated and summarized by descriptive statistic.

Zucker (fa/fa) rats = assay: Combination therapy of glutaminyl thiazolidine with other oral antidiabetics in Zucker (fa/fa) rats; type: in vivo, rat; conditions: after 14 days subchronic medication; versus Control; GT 60 mg/kg b.w. b.i.d. oral
Description: Standard pelleted chow (ssniff®, Soest, Germany) and tap water acidified with HCl were allowed ad libitum. At the age of 12 weeks the animals (N=42) were divided in random order into six experimental groups to be medicated.
as §1
A second OGTT was performed after two weeks of medication (Day 15).

SMILES	IC50 [1]	oral glucose tolerance [2]	reactive and absolute G-AUC ([3]; GT 60 mg/kg b.w. and/or Metformin 125 mg/kg b.w. (Met-low), b.i.d. oral, p<0.05 vs. Control)	glucose tolerance curve in the OGTT ([3]; GT 60 mg/kg b.w. and/or Metformin 125 mg/kg b.w. (Met-low), b.i.d. oral, vs. Control)	glucose tolerance ([3]; subchronic (18 days) b.i.d. administration, diabetic fatty Zucker rats (fa/fa))	glucose tolerance, OGTT-2 (Zucker (fa/fa) rats)
NC(=O)CC[C@H](N)C(=O)N1CCCC1 [glutaminyl pyrrolidine]	340 µM					
NC(=O)CC[C@H](N)C(=O)N1CCSC1 [glutaminyl thiazolidine]	> 3000 µM	improved oral glucose tolerance	significantly reduced	significantly improved glucose tolerance curves	improved glucose tolerance	improved glucose tolerance
